Here are results for one compound from patent US20240041838A1, “METHODS AND COMPOSITIONS FOR INHIBITION OF NEUTROPHIL RECRUITMENT IN MYCOCARDIAL ISCHEMIA-REPERFUSION INJURY” (University of Connecticut, priority 2022, published 2024).

The test system of data set [1] is mouse myocardial I/R injury. Briefly: infarct size (TTC-phthalo-blue staining) and left ventricle echocardiogram in mouse myocardial I/R injury. In kind it is in vivo. How it is done: Mice were subjected to 35 minutes of myocardial ischemia and 1 (for multi-photon microscopy and flow cytometry) or 22-26 (for TTC-phthalo-blue staining) hours of reperfusion. […] Briefly, anesthesia was induced with an intraperitoneal injection of ketamine hydrochloride (125 mg·kg^−1) and xylazine (12.5 mg·kg^−1). Mice were intubated with 24G×3/4″ Surflo i.v. catheter and ventilated using MiniVent 845 (Harvard Apparatus).
Surgeries were performed under an SMZ168 Stereo Zoom microscope (Motic). Ischemia was achieved by ligating the left anterior descending coronary artery (LAD) using a 6-0 silk suture with a section of PE-10 tubing placed over the LAD, 1 mm from the tip of the normally positioned left atrium. One important problem in drug administration is water solubility, which greatly affects drug absorption and bioavailability. […] In clinics, the primary percutaneous coronary intervention aims to be performed less than 90 min (within 60 min is preferable) after the patient arrives. […] After occlusion for 35 minutes, reperfusion was initiated by releasing the ligature and removing the PE-10 tubing. The chest wall was closed, the animal extubated, and body temperature was maintained by use of a 37° C. warm pad. Hearts were harvested 1 or 22-26 hours later. The loosened suture was left in place and then retied for the purpose of evaluating the ischemic area. […]
To assess the ischemic area at risk after 22-26 hours of reperfusion, hearts were excised, infused with PBS and freshly prepared 10% phthalo-blue (PBS with 0.75% tween 20) through the aorta and coronary arteries in a retrograde fashion, frozen at −20° C. for 10 minutes, and sliced into five to six 1 mm cross-sections with the aid of a pre-freeze acrylic matrix (ZIVIC Labs). […] The infarct area (white), the area at risk (red and white), and the total left ventricle area from each section were measured using ZEN v3.1 (Zeiss). Ratios of infarct area/area at risk (FIG. 5B) and of area at risk/left ventricle (FIG. 5C) were calculated and expressed as percentages.
To quantify left ventricle function, we performed echocardiograms on mice before and seven days after myocardial I/R injury. […] Echocardiography loops were recorded in B and two-dimensional-targeted M modes in longitudinal and short-axis views on a Vevo 3100 High-Resolution Imaging System equipped with an MX550D transducer (VisualSonics, Toronto, ON, Canada). Mice were fixed on a heated table and heart rate was monitored during the procedure. […] Left ventricular ejection fraction was determined by left ventricle tracing relating the end-systolic left ventricle area as the minimal left ventricle cross-sectional area to the end-diastolic left ventricle area as the maximum left ventricle cross-sectional area in long-axis views. […]

In data set [2] the test system is neutrophils. To be noted: reported; cited from earlier work.
The subject of data set [3] is Rac-1 activation in human neutrophils. The data set can be described thus: Rac-1-GTP pull-down and western blot in human neutrophils. To be noted: 10 μM, RT 1 hour, IL-8 1 μg·mL^−1, increase about 60% without drug. In kind it is cell-based. In general terms: A western blot detects proteins with antibodies after separation by electrophoresis.
For data set [4], the system named is LPS-induced systemic inflammation / acute lung injury. The conditions noted are these: reported, cited from earlier work.
Data set [5] can be described thus: pharmacokinetics after i.p. injection in mice. In kind it is in vivo, mouse. The conditions noted are these: plasma. The procedure: Pharmacokinetics was performed through a service provided by the Shanghai Institute of Materia Medica. […] Blood samples (20 μL) were collected at 3 min, 15 min, 45 min, 2 h, 4 h, 8 h, and 24 h through femoral vein phlebotomy. 200 μL of methanol:acetonitrile (1:1, v/v) with internal standard was added to […] of plasma and vortexed thoroughly. After centrifuging at 11000 rpm, RT for 5 min, 20 μL of the supernatant was collected and mixed with 20 μL of water for analysis. Samples were analyzed by a TQ-S triple quadrupole mass spectrometer (Waters, Milford, MA, USA). An Acquity Uplc Beh C18 Column (1.7 μm, 2.0 mm×50 mm, Waters) was used for the analysis. Gradient elution was applied consisting of 5 mM […] containing 0.1% formic acid and methanol:acetonitrile (1/9, v/v) containing 0.1% formic acid.

Values joined by “and” are separate entries in the source; they are usually repeats but may differ in a detail not shown here. Equal values may be shown once.

On to `CC(C)(C)C(=O)/C(=C\c1cccc([N+](=O)[O-])c1)n1cncn1` [Nexinhib20, 4,4-dimethyl-1-(3-nitrophenyl)-2-(1H-1,2,4-triazol-1-yl)-1-penten-3-one], for which the “infarct area percentage (infarct area/area at risk)” value in data set [1] (I/R 35 min/24 hours, i.p. 30 minutes before reperfusion, vehicle about 50%) is “about 40%”. The “change of ejection fraction after myocardial I/R injury” value in data set [1] (echocardiogram before and 7 days after I/R, vehicle reduced by about 25%) was “no significant reduction”. Further, the “change of fractional shortening after myocardial I/R injury” value in data set [1] (echocardiogram before and 7 days after I/R, vehicle reduced by about 30%) was “no significant reduction”. Besides, the “reduction of infarct size” value in data set [1] (mouse myocardial I/R injury) is “about 20%”. The “inhibition of neutrophil extracellular superoxide anion production” value in data set [2] is on record as “about 50%”. The “IL-8-induced increase of Rac-1-GTP” value in data set [3] is “eliminated these increases”. Besides, in data set [4] (LPS-induced systemic inflammation model), the “recruitment of neutrophils to the liver and kidney” value is on record as “inhibit recruitment of neutrophils”. Moreover, in data set [4] (acute LPS-induced lung injury mouse model), the “recruitment of neutrophils to lung lumen and parenchyma” value is reported as “inhibit recruitment of neutrophils”. The concentration at 4 h in data set [5] (male, mouse, ip, 0.8 μmol per mouse, 4 h) was < 28800 ng/mL and < 96 nM. Also, in data set [5] (male, mouse, ip, 0.8 μmol per mouse, one phase exponential decay fit, 95% CI), the half-life was 11.5 to 16.3 min. Further, the “time within which Nexinhib20 was degraded” value in data set [5] was not above 2 h.

A word on the half-life: it is how long it takes for the measured level to halve. Low readings indicate rapid decline, high ones slow decline.
